Experimental data: US20040132121A1, “Method of identifying antibacterial compounds” (priority 2000, published 2004)
Like-named read-outs stand apart in the source and are kept apart here. Where a SMILES comes first, the peptide text is derived from it. Where no end group is shown, it is not given here.

Legend:
[1] = molecular target: T1, binding of E. coli α to E. coli β (Escherichia coli, UniProt P0A988); assay: biochemical; conditions: for inhibition of the binding of α to β: plate inhibition assay as in Example 6, buffer BB14
T1 construct: made in house
T1 sequence (P0A988 whole entry): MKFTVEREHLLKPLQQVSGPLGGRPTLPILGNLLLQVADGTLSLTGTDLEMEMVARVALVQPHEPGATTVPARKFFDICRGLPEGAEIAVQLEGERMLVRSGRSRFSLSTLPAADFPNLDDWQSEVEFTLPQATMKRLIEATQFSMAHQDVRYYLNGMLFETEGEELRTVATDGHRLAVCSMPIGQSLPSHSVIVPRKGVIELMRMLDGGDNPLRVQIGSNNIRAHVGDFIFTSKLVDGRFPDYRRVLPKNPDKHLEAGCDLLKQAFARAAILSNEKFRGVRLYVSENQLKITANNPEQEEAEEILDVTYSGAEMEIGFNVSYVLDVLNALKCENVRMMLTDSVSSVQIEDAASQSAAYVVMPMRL
Experimental: Recombinantly expressed wild type E. coli α subunit was purified and coated onto 96 well microtitre plates (Falcon flexible plates, Becton Dickinson) at 20 μg/ml in 100 mM Na2CO3, pH9.5 (50 μl/well, 4° C. overnight or 2 h, RT (RT). The plates were washed in WB3 (20 mM Tris (pH 7.5), 0.1 mM EDTA containing 0.05% v/v Tween 20). This buffer was used in all wash steps through out the assay. The plates were then blocked with “blotto” (5% skim milk powder in WB3, 100 μl/well, RT) until required. Immediately before use the plates were washed.
The purified synthetic peptides and β subunit were diluted in BB14 (20 mM Tris, pH 7.5, 10 mM MgCl2, 0.1 mM EDTA). Purified synthetic peptides with concentrations of 9.3-300 and 1000 μg/ml were allowed to complex with purified wild type β subunit (5 μg/ml) in a 96 well microtitre plate (Sarsted, Adelaide, Australia) pre-treated with “blotto” (30 min, RT). The reaction volume was 120 μl. The β subunit also was incubated in the absence of peptide or in the presence of the α subunit at 76.5 (μg/ml in BB14. All samples were incubated for 1 h (RT). Two 50 μl samples were transferred from each well to a corresponding well of the washed and “blocked” α subunit coated plates, and further incubated for 30 min (RT).
The plates were washed and treated with rabbit serum raised to the β subunit. The anti-serum was diluted 1:1000 in WB3 containing 10% “blotto”, dispensed at 50 μl/well and incubated for 12 min (RT). The plates were washed again and treated with sheep anti-rabbit Ig-HRP conjugate (Silenus, Melbourne, Australia) diluted 1:1000 in WB3 containing 10% “blotto” (50 μl/well). The plate was incubated for 12 min (RT). After a final washing step, 1 mM 2,2′-azino-bis (3-ethylbenzthiazoline-6-sulfonic acid) was added (110 μl/well). Colour development was assessed at 405 nm using a plate reader (Multiskan Ascent, Labsystems, Sweden).
For the CMS compounds in the of α:β assays, buffer BB37 replaced buffer BB14. Buffer BB37 contains 10 mM MnCl2 instead of the 10 mM MgCl2 used in BB14. The buffer conditions were changed to improve the reproducibility and sensitivity of the α:β binding assay.
Compounds from the CMS library were dissolved in DMSO at 1 mg/ml in a 96 well tray format. A corresponding slave plate was prepared by adding 115 μl of BB37. Dissolved compounds (5 μl) from the master plate was added to the corresponding well in slave plates giving a final concentration of 41.7 μg/ml.
Compounds were assayed for inhibition of the binding of E. coli α to E. coli β as described in Example 13.
Peptides were assayed for inhibition of the binding of E. coli α to E. coli β as described in Example 6 with the exception that buffer BB37 replaced buffer BB14 in the alpha:beta binding assay. As noted above, BB37 contains 10 mM MnCl2 instead of 10 mM MgCl2 used in BB14. Again, the change in buffer conditions was made to improve the reproducibility and sensitivity of the α:β binding assay.

[2] = molecular target: binding of E. coli δ to E. coli β (Escherichia coli, UniProt P0A988); assay: biochemical; conditions: for inhibition of the binding of δ to β: plate binding assay as in Example 6
Chain of binding of E. coli δ to E. coli β (P0A988 whole entry): as above

[3] = system: B. subtilis IH 6140; assay: Inhibition of growth of B. subtilis by peptides (OD620 growth curve); type: cell-based, Bacillus subtilis
Experimental: B. subtilis IH 6140 was subcultured from a fresh plate into a 10 ml tube containing 5 ml of Oxoid Mueller-Hinton broth (Oxoid code CM405 Oxoid Manual 7th edition 1995 pg 2-161). This culture was shaken at 120 rpm at 37° C. for 21 h and then diluted in normal saline to 0.5 McFarland Standard (NCCLS Performance standard for Dilution Antimicrobial Susceptibility Testing M7-A4 January 1997). This suspension was further diluted 1:5 in normal saline to form the bacterial starter culture. Peptides were tested at a final concentration of 1 mg/ml in a flat bottom 96 well plate (Nunclon surface, sterile Nalge Nunc International). Wells were prepared by using 100 μl of double strength Mueller-Hinton Broth, an appropriate volume of peptide and the final volume made up to 190 μl. The wells were then inoculated with 10 μl of the starter culture.
The plate was sealed with a clear adhesive plate seal (Abgene House). It was then placed in a Labsystems Multiskan Ascent spectrophotometer. The plate was incubated at 37° C. with shaking at 120 rpm every alternate 10 seconds. The absorbence at 620 nm was measured every 30 min for 16 h.

[4] = molecular target: T2, β subunit (Escherichia coli, UniProt P0A988); assay: Surface plasmon resonance solution affinity analysis (IC50 of free peptide); type: binding, E. coli
T2 sequence (P0A988 whole entry): as above
Experimental: (§1) Reverse phase HPLC purified peptides (10 μg) were reacted with 1 mg biotin-linker (6-(6-((biotinoyl)amino(hexanoyl) amino) hexanoic acid) sulphosuccinimidyl ester; Molecular Probes, Eugene, Oreg.) (20 mg/ml in DMSO) in 75 mM sodium borate (pH8.5) overnight (RT) with rotation. […] Biotinylated peptides that eluted later than the biotin-linker and free peptide, were collected, vacuum dried and then dissolved in water. SPR was conducted on a Biacore 2000 using streptavidin derivitised flow cell surfaces (Biacore). All β subunit and free peptide solutions were prepared in BB14 with 150 mM NaCl.
For the solution affinity analyses, higher loadings of the biotinylated peptides on the flow cell surfaces, and therefore high RU (700-1000), were established. Loading with peptide 4 generated a negative control surface. […] In all data manipulations, the RU values of this surface was subtracted from the RU values of the test surface. A calibration curve of RU values generated at different concentrations of the β subunit over 10-100 nM was developed for each biotinylated peptide attached to the flow cell surface. To determine the inhibitory effect of free peptide, 100 nM β subunit was pre-incubated for 5 min with different concentrations of free peptide (10 nM to 4.5 μM, in duplicate) to form a complex of β subunit and peptide and then passed over the flow cell surfaces. The amount of free uncomplexed βremaining was determined from the calibration curve. The log of the concentration of the uncomplexed (free) β subunit was plotted against the log concentration of inhibitory peptide.

[5] = molecular target: T2, β subunit; assay: biochemical; type: binding, E. coli; conditions: SPR, 1:1 Langmuir model
Experimental: as §1
The data was fitted to the 1:1 Langmuir model by the BioEvaluation software (Biacore).

[6] = B. subtilis IH 6140, peptide 1 mg/ml, OD620 over 16 h
[7] = Table 21, NCI compounds, buffer BB14, read-out: IC50 α-binding
[8] = IC50 δ (inhibition of binding of δ to β), Table 17, δ-coated plate, β 1 μg/ml
[9] = Table 17, α-coated plate, β 5 μg/ml, buffer BB14, read-out: IC50 α (inhibition of binding of α to β) (converted)
[10] = Table 20, assayed as in Example 6, read-out: IC50 α:β
[11] = IC50 b-peptide 1, free peptide with 100 nM β, biotinylated peptide 1 on flow cell surface
[12] = IC50 b-peptide 14, free peptide with 100 nM β, biotinylated peptide 14 on flow cell surface
[13] = Table 24, buffer BB37 (10 mM MnCl2), read-out: IC50 α:β
[14] = free peptide with 100 nM β, biotinylated peptide 1 on flow cell surface, read-out: IC50 b-peptide 1
[15] = free peptide with 100 nM β, biotinylated peptide 14 on flow cell surface, read-out: IC50 b-peptide 14
[16] = biotinylated peptide on surface, read-out: KD
[17] = biotinylated peptide on flow cell surface, read-out: KD

Molecule: COC(=O)CC(=O)NOCc1ccc(Cl)c(Cl)c1 [AOC-06454]
- % Inhibition of binding of E. coli α to E. coli β [1]: 72.2, 75.3%

Molecule: COC(=O)CC(=O)NOCc1ccc(Cl)c(Cl)c1 [AOL-06454]
- inhibition of the binding of E. coli α to E. coli β (CMS library screen) [1]: significantly inhibited

Molecule: CC(C)C[C@H](NC(=O)[C@@H](N)CC(=O)O)C(=O)N[C@@H](Cc1ccccc1)C(=O)O [DLF] (H-Asp-Leu-Phe-OH; N-terminus and C-terminus assumed)
- IC50 ([2]; δ:β binding, 50% inhibition, plate binding assay): ~3050 µM
- Doubling time log phase [3, 6]: 187 Min
- Increase in lag phase [3, 6]: 120 min
- effect on growth rate during log phase of B. subtilis ([3]; peptide 1 mg/ml): decreasing the growth rate
- effect on lag phase of B. subtilis growth ([3]; peptide 1 mg/ml): increasing the lag phase
- inhibition of growth of B. subtilis ([3]; peptide 1 mg/ml, OD620 over 16 h): significantly inhibits
- IC50 ([1]; α:β binding, 50% inhibition, plate inhibition assay): ~343 µM

Molecule: CC[C@H](C)[C@H](N)C(=O)NCC(=O)N[C@@H](CCC(N)=O)C(=O)N[C@@H](C)C(=O)N[C@@H](CC(=O)O)C(=O)N[C@@H](CCSC)C(=O)N[C@@H](Cc1ccccc1)C(=O)NCC(=O)N[C@H](C(=O)O)C(C)C [DnaE]
- inhibition of the binding of δ to β [2]: inhibited
- inhibition of the binding of α to β [1]: significant inhibition

Molecule: NC(CCC(=O)NC(CSCC(=O)c1ccc(Br)cc1)C(=O)NCC(=O)O)C(=O)O (centres unmarked) [Peptide 131123]
- IC50 ([2]; IC50 δ-binding, Table 21): > 1000 µM
- IC50 [1, 7]: 210 µM
- inhibition of the binding of α to β [1]: significantly inhibited

Molecule: CC(C)(C)OC(=O)NCC(=O)NC(CSC(c1ccccc1)c1ccccc1)C(=O)NCC(=O)O (centres unmarked) [Peptide 338500]
- IC50 ([2]; IC50 δ-binding, Table 21): 146 µM
- inhibition of the binding of δ to β [2]: significantly inhibited
- IC50 [1, 7]: > 1000 µM

Molecule: CC(C)C[C@H](NC(=O)[C@@H](N)CC(=O)O)C(=O)N[C@@H](Cc1ccccc1)C(=O)O [pep16] (H-Asp-Leu-Phe-OH; N-terminus and C-terminus assumed)
- IC50 [2, 8]: 3050 µM
- IC50 [1, 9]: 343 µM
- IC50 [1, 10]: 135 µM

Molecule: CC(=O)N[C@@H](CC(=O)O)C(=O)N[C@@H](CC(C)C)C(=O)N[C@@H](Cc1ccccc1)C(N)=O [pep18] (Ac-Asp-Leu-Phe-NH2)
- IC50 [1, 10]: 135 µM

Molecule: EAQLDLFDS [Peptide 112d]
- IC50 [2]: 3.6 µM
- IC50 [1]: 1 µM

Molecule: IGQADMAGV [Peptide 4]
- IC50 [4, 11]: > 10 µM
- IC50 [4, 12]: > 10 µM

Molecule: IGQAMSLFGV [Peptide 110a]
- IC50 ([2]; IC50 δ:β, Table 24): > 100 µM
- IC50 [1, 13]: 27 µM

Molecule: IGQASMFGV [pep2]
- IC50 δ (inhibition of binding of δ to β) ([2]; Table 17, δ-coated plate, β 1 μg/ml): ni^a
- IC50 [1]: 946 µM

Molecule: IGQLDLFGV [Peptide 14]
- IC50 [4, 14]: 0.4 µM
- IC50 [4, 15]: 0.5 µM
- inhibition of the binding of δ to β [2]: inhibited
- Kd [5, 16]: 0.8 µM
- Kd [5, 17]: 0.778 µM
- inhibition of the binding of α to β [1]: significant inhibition

Molecule: IGQLDLFGV [pep14]
- IC50 [2, 8]: 9.16 µM
- IC50 [1, 9]: 1.38 µM

Molecule: IGQLDMFGV [Peptide 1]
- IC50 [4, 11]: 0.92 µM
- IC50 [4, 12]: 1.01 µM
- inhibition of the binding of δ to β [2]: inhibited
- Kd ([5]; KD, biotinylated peptide on surface): 0.5 µM
- Kd ([5]; KD, biotinylated peptide on flow cell surface): 0.558 µM
- inhibition of the binding of α to β [1]: significant inhibition

Molecule: IGQLDMFGV [pep1]
- IC50 [2]: 13.2 µM
- IC50 [1]: 2.86 µM

Molecule: IGQLGLFGV [Peptide 110f]
- IC50 ([2]; IC50 δ:β, Table 24): 9.5 µM
- IC50 [1, 13]: 17.5 µM

Molecule: IGQLNLFGV [Peptide 110d]
- IC50 ([2]; IC50 δ:β, Table 24): 11.5 µM
- IC50 [1, 13]: 7.8 µM

Molecule: IGQLSLFGV [Peptide 13]
- IC50 [4, 14]: 0.44 µM
- IC50 [4, 15]: 0.55 µM
- IC50 [2, 8]: 10.2 µM
- IC50 ([2]; IC50 δ:β, Table 24): 5.9 µM
- inhibition of the binding of δ to β [2]: inhibited
- Kd [5, 16]: 0.778 µM
- Kd [5, 17]: 0.8 µM
- IC50 [1, 9]: 1.52 µM
- IC50 [1, 13]: 4.9 µM
- inhibition of the binding of α to β [1]: significant inhibition

Molecule: IGQLSLPLGV [Peptide 110c]
- IC50 ([2]; IC50 δ:β, Table 24): 3.3 µM
- IC50 [1, 13]: 3.4 µM

Molecule: IGQLVLGLGV [Peptide 110b]
- IC50 ([2]; IC50 δ:β, Table 24): 6.8 µM
- IC50 [1, 13]: 9.3 µM

Molecule: IGQMSLLGV [Peptide 110e]
- IC50 ([2]; IC50 δ:β, Table 24): 7 µM
- IC50 [1, 13]: 9.7 µM
